Reference: US7267977B2, “Peripheral-type benzodiazepine receptor: a tool for detection, diagnosis, prognosis, and treatment of cancer” (Georgetown University, priority 1998, dated 2007)

Columns and labels:
PBR [1] = target: T1, PBR (Homo sapiens, UniProt P30536); experiment: Fluorescent microscopy with compound 4 fluorescent PBR ligand, cultured cells; assay type: cell-based; design: endogenous in cells; host or cells: MDA-231, MCF-7 and MCF-7ADR (ADR) human breast cancer cells, whole cells or isolated nuclei; details: MDA-231 cells, 100 uM competitor, 1 uM compound 4, 45 min at 37° C.
Method: Fluorescent Microscopy with the compound 4 fluorescent PBR Ligand—MA-10, MDA-231, MCF-7, and ADR cells were grown on glass coverslips as previously described [Kozikowski et al. (1997) J. Med. Chem. 40: 2435-2439]. Cells were then washed twice with sterile PBS and incubated for 45 min with 1 uM compound 4, a fluorescent derivative of the PBR ligand FGIN-27, with or without a competing PBR ligand, FGIN-27, at a concentration of 100 uM. After the incubation period, the cells were washed with PBS and examined by fluorescent microscopy using an Olympus BH-2 fluorescence microscope.
Target sequence in this assay (P30536 2-169): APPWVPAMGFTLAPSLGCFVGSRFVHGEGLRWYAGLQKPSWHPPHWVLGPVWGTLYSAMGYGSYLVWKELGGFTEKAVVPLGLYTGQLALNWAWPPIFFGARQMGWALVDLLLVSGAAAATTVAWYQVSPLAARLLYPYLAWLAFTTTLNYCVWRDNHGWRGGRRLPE

[2] = target: T2, peripheral-type benzodiazepine receptor (PBR) (Homo sapiens, UniProt P30536); experiment: [3H]PK11195 binding to isolated nuclei (Scatchard analysis); details: pmol/mg nuclear protein
T2 construct: Cells were scraped from 150 mm culture dishes into 5 ml phosphate buffered saline (PBS); endogenous in cells; host or cells: MDA-231, MCF-7 and MCF-7ADR (ADR) human breast cancer cells, whole cells or isolated nuclei
T2 sequence (P30536 2-169): as above
Method: (§1) Radioligand Binding Assays—Cells were scraped from 150 mm culture dishes into 5 ml phosphate buffered saline (PBS), dispersed by trituration, and centrifuged at 500×g for 15 min. Cell pellets were resuspended in PBS and assayed for protein concentration. […] Scatchard plots were analyzed by the LIGAND program [Munson, (1980) Anal. Biochem. 107:220]. […] IC50 estimation was performed using the LIGAND program (Munson, 1980, supra).
(§2) Nuclear Uptake of ^3H-Cholesterol—Nuclei were isolated from MDA-231, MCF-7, and as described by Elango et al (1997). […] Samples were then centrifuged at 500×g for 30 min and pellets were washed in […] ice-cold PBS. After a second centrifugation at 500×g for 30 min, 200 ul 1.0 N NaOH was then added to the pellets and incubated overnight at 37° C. After incubation, 200 ul 1.0 N HCl was added and samples were vigorously vortexed. 3 ml scintillation cocktail (Eco-Lite) was then added prior to reading radioactivity on a Wallac 1409 Liquid Scintillation Counter.

PBR [3] = target: T1, PBR; experiment: Compound 4 fluorescence labeling of human breast tissue biopsies; design: Paraffin embedded sections of normal breast tissue; from tissue; host or cells: human breast biopsies (normal tissue and aggressive carcinoma), Lombardi Cancer Center; details: 1000 fold excess of competitive ligand
Target sequence in this assay (P30536 whole entry): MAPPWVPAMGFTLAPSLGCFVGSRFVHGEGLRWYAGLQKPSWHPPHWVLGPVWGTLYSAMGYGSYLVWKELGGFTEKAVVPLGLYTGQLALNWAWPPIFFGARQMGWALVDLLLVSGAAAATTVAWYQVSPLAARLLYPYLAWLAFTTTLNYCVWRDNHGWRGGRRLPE
Method: PBR ligand binding activity was determined using the fluorescent PBR derivative compound 4 [Munson, 1980, supra]
In some samples, the hematoxylin counterstaining was omitted in order to confirm the PBR positive staining of the nuclei of breast carcinoma cells (b). […] In this experiment an FITC-coupled secondary antibody was used to localize the immunoreactive PBR protein. […] PBR ligand binding activity was also determined in the aggressive breast carcinomas using the fluorescent PBR derivative compound 4 (FIG. 10e).

MCF-7 nuclei = experiment: Nuclear uptake of 3H-cholesterol, MCF-7 nuclei; assay type: biochemical, human; details: increasing concentrations of PK11195
Method: as §2

[4] = target: T2, peripheral-type benzodiazepine receptor (PBR); experiment: [3H]PK11195 radioligand binding to whole cells (Scatchard analysis, competition); details: 50 μg protein, [3H]PK11195, Scatchard plot
Method: as §1

MDA-231 nuclei = experiment: Nuclear uptake of 3H-cholesterol, MDA-231 nuclei; assay type: biochemical, human; details: -8 to -6M PK11195, MDA-231 nuclei, 60 min at 37° C.
Method: as §2

MDA-231 cells = experiment: BrdU cell proliferation ELISA; assay type: cell-based, human; details: for stimulation of MDA-231 cell proliferation: 48 h
Method: BrdU Cell Proliferation Assays and BrdU-labeling of MDA-231 Cells—MDA-231 cells were plated on 96-well plates (Corning) at a concentration of approximately 10,000 cells/well (24 h incubation) or approximately 5,000 cells/well (48 h incubation) in DMEM supplemented with 0.1% FBS.

| displacement of compound 4 fluorescent binding (PBR [1]) | Bmax ([2]; nuclei isolated from MCF-7 cells) [pmol/mg protein] | Bmax ([2]; nuclei isolated from MDA-231 cells) [pmol/mg protein] | displacement of compound 4 fluorescence (PBR [3]; aggressive breast carcinoma biopsies) | displacement of compound 4 fluorescence (PBR [3]; normal human breast tissue) | Bmax ([4]; ADR (MCF-7ADR) cells) [pmol/mg protein] | Bmax ([4]; MDA-231 cells) [pmol/mg protein] | Compound | response of cholesterol uptake to PK11195 dose-response (MCF-7 nuclei) | decrease in the amount of cholesterol uptake (MDA-231 nuclei) [%] | effect on MDA-231 cell proliferation (MDA-231 cells; 24 h, −10 and −9M) | stimulation of MDA-231 cell proliferation (MDA-231 cells; any of the micromolar concentrations) | stimulation of MDA-231 cell proliferation (MDA-231 cells; −8M) [%] | Emax (MDA-231 cells; Homo sapiens, MDA-MB-231, 24 h, −5M, read-out: maximal stimulation of MDA-231 cell proliferation) [%] | toxicity to MDA-231 cells (MDA-231 cells; −4M) |
| --- | --- | --- | --- | --- | --- | --- | --- | --- | --- | --- | --- | --- | --- | --- |
| displacement of fluorescent binding |  |  |  |  |  |  | CCCCCCN(CCCCCC)C(=O)Cc1c(-c2ccc(F)cc2)[nH]c2ccccc12 [FGIN-27] |  |  |  |  |  |  |  |
|  | 0.4±0.2 | 6.9±4.8 | completely displaced the fluorescence | completely displaced the fluorescence | 1.3±0.23 | 8.7±1.4 | CCC(C)N(C)C(=O)c1cc2ccccc2c(-c2ccccc2Cl)n1 (centres unmarked) [PK11195] | failed to respond | ~20 | no effect | no stimulation | 40 | 40 | toxic concentration |
